In patent US12616672B2, “Methods for assessing risk of cardiovascular disease and methods and compounds for use in treating or preventing cardiovascular disease” (Queen Mary University of London, priority 2017, dated 2026):
Values joined by “and” are separate entries in the source; they are usually repeats but may differ in a detail not shown here. Equal values may be shown once.

What was measured:
[1] = system: peripheral blood from healthy volunteers; assay: Human whole blood incubations (ACh, norepinephrine, cortisol), then lipid mediator profiling of plasma; type: cell-based; settings: for production of n-3 DPA derived mediators in peripheral blood: norepinephrine 0.1-10 μM, cortisol 1-10 μM, healthy volunteers
Procedure: Plasma was obtained from peripheral blood of healthy volunteers and patients following centrifugation at 1500×g for 10 min at room temperature. Descending aortas were weighed, placed in ice-cold methanol and homogenized using a glass dounce.
All samples for LC-MS-MS-based profiling were extracted using solid-phase extraction columns as described in Dalli et al. 2013 and Rathod et al. 2017, the contents of which are incorporated herein by reference.
Prior to sample extraction, deuterated internal standards, representing each region in the chromatographic analysis (500 pg each) were added to facilitate quantification in 4V of cold methanol.
Samples were kept at −20° C. for a minimum of 45 min to allow protein precipitation.
Supernatants were subjected to solid phase extraction, methyl formate fraction collected, brought to dryness and suspended in phase (methanol/water, 1:1, vol/vol) for injection on a Shimadzu LC-20AD HPLC and a Shimadzu SIL-20AC autoinjector, paired with a triple quadrupole mass spectrometer with or without a linear ion trap.
An Agilent Poroshell 120 EC-C18 column (100 mm×4.6 mm×2.7 μm) was kept at 50° C. and mediators eluted using a mobile phase consisting of methanol-water-acetic acid of 20:80:0.01 (vol/vol/vol) that was ramped to 50:50:0.01 (vol/vol/vol) over 0.5 min and then to 80:20:0.01 (vol/vol/vol) from 2 min to 11 min, maintained till 14.5 min and then rapidly ramped to 98:2:0.01 (vol/vol/vol) for the next 0.1 min. This was subsequently maintained at 98:2:0.01 (vol/vol/vol) for 5.4 min, and the flow rate was maintained at 0.5 ml/min. Mass spectrometer was operated using a multiple reaction monitoring method as in Walker M E et al. 13-Series resolvins mediate the leukocyte-platelet actions of atorvastatin and pravastatin in inflammatory arthritis. FASEB J. 2017 August; 31(8):3636-3648, the contents of which are incorporated herein by reference.
Each LM was identified using established criteria including matching retention time to synthetic and authentic materials and at least six diagnostic ions (Walker M E et al. 2017. ibid.)
Calibration curves were obtained for each using synthetic compound mixtures at 0.78, 1.56, 3.12, 6.25, 12.5, 25, 50, 100, and 200 pg that gave linear calibration curves with an r^2 values of 0.98-0.99. […]

[2] = system: healthy volunteer peripheral blood neutrophils, monocytes and platelets; assay: Healthy volunteer whole blood incubated with RvDn-3 DPA then PAF, flow cytometry of activation markers; type: cell-based, human; settings: vs PAF alone
Procedure: Blood was collected from healthy volunteers and incubated with RvD2n-3 DPA, RvD5n-3 DPA (0.1 nM, 1 nM or 10 nM) or vehicle (PBS) for 15 min (37° C.) then with PAF (100 ng/ml; 30 min; 37° C.). Cell activation and leukocyte-platelet aggregates were assessed using flow cytometry. (A,B) Representative histograms depicting neutrophil (A) CD11b and (B) CD62P expression. (C,D) Cumulative neutrophil ([…]) CD11b and (D) CD62P expression. (E,F) Monocyte (E) CD11b and (F) CD62P expression. Results are mean of n=5 per time point and expressed as percentage change from PAF incubated cells. *p<0.05 compared to PAF using one-sample t test, followed by Sidak correction of p values.
Blood was collected from healthy volunteers and incubated with RvD2n-3 DPA, RvD5n-3 DPA (0.1 nM, 1 nM or 10 nM) or vehicle (PBS) for 15 min (37° C.) then with PAF (100 ng/ml; 30 min; 37° C.). Cell activation and leukocyte-platelet aggregates were assessed using flow cytometry. (A,B) Images depicting platelet monocyte (A) and (B) platelet-neutrophil aggregates. Results are representative of n=3 distinct experiments. (C,D) Cumulative neutrophil (C) CD11b and (D) CD62P expression. (E,F) Monocyte (E) CD11b and (F) CD62P expression. Results are mean of n=5 per condition and expressed as percentage change from PAF incubated cells. *p<0.05 compared to PAF using Wilcoxon Signed Rank Test. (G) Platelet rich plasma was incubated with vehicle (PBS) or RvD5n-3 DPA 0.1-10 nM (15 min; 37° C.) and PAF (100 nM; 30 min; 37° C.). Adhesion molecule expression evaluated using flow cytometry. Results are mean±s.e.m. n=5 healthy volunteers. * p, 0.05 compared to Vehicle group using Friedman's test followed by Dunn's multiple comparisons test.
(§1) After stimulation, samples were washed twice with PBS for 12 min at 800×g. Samples were stained for flow cytometry as described below.
(§2) Whole blood was incubated with lineage-specific markers for 45 min (4° C., in DPBS containing 0.02% BSA). The following anti-human antibodies were used: VioBlue-anti-CD41, PE-Cy5-anti-CD62P, Brilliant Violet 711-anti-CD11b, APC-Cy7-anti-CD16, Alexa Fluor 647-anti-CD14. After staining, red blood cells were lysed using Whole Blood Lysing Reagent Kit, according to the manufacturer's instructions. Data was collected using a flow cytometer and analysis was conducted using appropriate software.

[3] = system: peripheral blood leukocytes and platelets from CVD patients; assay: CVD patient whole blood incubated with RvD2n-3 DPA or RvD5n-3 DPA for 45 min, flow cytometry; type: cell-based, human; settings: 45 min, no PAF
Procedure: FIG. 8: RvD2n-3 DPA and RvD5n-3 DPA reduce leukocyte activation in peripheral blood from CVD patients. Peripheral blood from patients diagnosed with cardiovascular disease (CVD) was collected at 9:00 h. […] Expression of CD62P on (A) neutrophils (B) monocytes and CD11b on (C) neutrophils and (D) monocytes was investigated using flow cytometry and fluorescently labelled antibodies.
as §2
In select experiments platelet adhesion molecule expression was assessed. Here platelets were incubated with fluorescently labelled mouse anti-human VioBlue-anti-CD41, PE-Cy5-anti-CD62P, PerCP/Cy5.5-anti-CD63 and FITC-ant-CD42b for 30 min at 4° C. Cells were then washed and fluorescence, staining evaluated using LSRFortessa cell analyser (BD Biosciences) and analysed using FlowJo software (Tree Star Inc., V10).

[4] = system: peripheral blood leukocytes and platelets from CVD patients; assay: CVD patient whole blood incubated with RvD2n-3 DPA or RvD5n-3 DPA then PAF, flow cytometry; type: cell-based, human; settings: 15 min then PAF 30 min
Procedure: (§3) Whole blood was incubated with RvD2n-3 DPA or RvD5n-3 DPA (0.1 nM, 1 nM or 10 nM) or vehicle (PBS containing 0.01% EtOH) for 15 min then with PAF (100 ng/ml) for 30 min (37° C.). Expression of CD62P on (A) neutrophils (B) monocytes and CD11b on (C) neutrophils and (D) monocytes was investigated using flow cytometry and fluorescently labelled antibodies. Results are mean±s.em. and expressed as percentage of PAF incubated cells. n=9 patients per interval. * p<0.05 vs Veh group using one-sample t test, followed by Sidak correction of p values.
as §3, with “labeled” for “labelled”, “group.” for “interval.”, “PAF” for “Veh”, “Wilcoxon Signed Rank Test.” for “one-sample t test, followed by Sidak correction of p values.”
as §1, §2

[5] = system: peripheral blood leukocytes and platelets from CVD patients; assay: as above; type: cell-based, human
[6] = system: peripheral blood from CVD patients; settings: ADA 1U, 37° C., 20 min, then perfused 0.3 Pa
Procedure: (B) Peripheral blood from CVD patients was incubated with ADA (1U; 37° C.; 20 min) then perfused (0.3 Pa, 20 min, 37° C.). Plasma was collected and RvDn-3 DPA concentrations determined using LC/MS-MS based lipid mediator profiling. Results are mean±s.e.m. n=6 donors. *p<0.05, using paired Mann-Whitney test.
Using an automated syringe pump (Harvard Apparatus) connected to small-diameter tubing (1.6 mm inner diameter) and chamber slides (15μ-Slide VI^0.4, Ibidi), whole blood was perfused at a sheer rate of 0.1 dyne/cm^2 (low sheer rate) and at 0.3 dyne/cm^2 (high sheer rate) for 15 min. In selected experiment, blood was incubated with 10 nM Ach or 1 u of ADA for 20 min prior perfusing.

[7] = whole blood with ACh 0.1 μM, 45 min, 37° C., n = 9
[8] = whole blood with ACh 0.1 μM, 45 min, n = 9
[9] = whole blood with Cortisol 1 μM, 45 min, n = 5
[10] = whole blood with Cortisol 10 μM, 45 min, n = 5
[11] = 0.1, 1, 10 nM, 15 min then PAF 30 min
[12] = CVD patient whole blood, 0.1, 1, 10 nM

Compound: CC(=O)OCC[N+](C)(C)C [ACh, acetylcholine]
- increase in RvD2n-3 DPA compared with blood incubated with vehicle alone ([1]; whole blood incubated with ACh): ~160%
- 7-HDPA concentration [1, 7]: 44.9 pg/mL and 44.9 ± 10.7 pg/mL
- 13-HDPA concentration [1, 7]: 1.9 pg/mL and 1.9 ± 0.6 pg/mL
- 14-HDPA concentration [1, 7]: 137.2 pg/mL and 137.2 ± 25.8 pg/mL
- 17-HDPA concentration [1, 7]: 58.9 pg/mL and 58.9 ± 13.2 pg/mL
- DPA concentration [1, 7]: 3873.1 pg/mL and 3873.1 ± 706.3 pg/mL
- MaR1n-3 DPA concentration [1, 7]: 0.9 pg/mL
- PD1n-3 DPA concentration [1, 7]: 0.5 pg/mL
- RvD1n-3 DPA concentration [1, 7]: 4.9 pg/mL
- RvD2n-3 DPA concentration [1, 7]: 7.4 pg/mL
- RvD5n-3 DPA concentration [1, 7]: 1.5 pg/mL
- RvT1 concentration [1, 7]: 2.0 pg/mL
- RvT2 concentration [1, 7]: 1.6 pg/mL
- RvT3 concentration [1, 7]: 1.4 pg/mL
- RvT4 concentration [1, 7]: 1.0 pg/mL
- 4HDHA concentration [1, 8]: 19.9 ± 5.1 pg/mL
- 5HEPE concentration [1, 8]: 42.7 ± 11.3 pg/mL
- 5HETE concentration [1, 8]: 69.9 ± 13.5 pg/mL
- 7HDHA concentration [1, 8]: 8.6 ± 3.7 pg/mL
- 12HEPE concentration [1, 8]: 402.4 ± 106.0 pg/mL
- 12HETE concentration [1, 8]: 5148.0 ± 1153.2 pg/mL
- 14HDHA concentration [1, 8]: 229.2 ± 41.2 pg/mL
- 15HEPE concentration [1, 8]: 31.3 ± 8.7 pg/mL
- 15HETE concentration [1, 8]: 336.4 ± 95.2 pg/mL
- 17HDHA concentration [1, 8]: 103.6 ± 25.9 pg/mL
- 18HEPE concentration [1, 8]: 36.2 ± 12.2 pg/mL
- AA concentration [1, 8]: 24205.0 ± 4783.4 pg/mL
- DHA concentration [1, 8]: 28104.0 ± 10103.4 pg/mL
- EPA concentration [1, 8]: 5867.2 ± 713.2 pg/mL

Compound: C[C@]12CCC(=O)C=C1CC[C@@H]1[C@@H]2[C@@H](O)C[C@@]2(C)[C@H]1CC[C@]2(O)C(=O)CO [Cortisol, cortisol]
- production of n-3 DPA derived mediators in peripheral blood [1]: did not significantly augment
- 7-HDPA concentration [1, 9]: 268.9 ± 83.5 pg/mL
- 13-HDPA concentration [1, 9]: 3.2 ± 0.7 pg/mL
- 14-HDPA concentration [1, 9]: 286.2 ± 91.0 pg/mL
- 17-HDPA concentration [1, 9]: 74.9 ± 18.2 pg/mL
- DPA concentration [1, 9]: 24568.2 ± 6300.4 pg/mL
- MaR1n-3 DPA concentration [1, 9]: 0.3 ± 0.2 pg/mL
- PD1n-3 DPA concentration [1, 9]: 1.5 ± 1.1 pg/mL
- RvD1n-3 DPA concentration [1, 9]: 1.9 ± 1.2 pg/mL
- RvD2n-3 DPA concentration [1, 9]: 1.0 ± 0.9 pg/mL
- RvD5n-3 DPA concentration [1, 9]: 1.1 ± 0.6 pg/mL
- RvT1 concentration [1, 9]: 0.5 ± 0.2 pg/mL
- RvT2 concentration [1, 9]: 0.1 ± 0.1 pg/mL
- RvT3 concentration [1, 9]: 1.6 ± 0.5 pg/mL
- RvT4 concentration [1, 9]: 2.7 ± 1.5 pg/mL
- 7-HDPA concentration [1, 10]: 257.8 ± 109.6 pg/mL
- 13-HDPA concentration [1, 10]: 3.0 ± 0.6 pg/mL
- 14-HDPA concentration [1, 10]: 241.0 ± 40.9 pg/mL
- 17-HDPA concentration [1, 10]: 71.5 ± 17.5 pg/mL
- DPA concentration [1, 10]: 28823.5 ± 8019.0 pg/mL
- MaR1n-3 DPA concentration [1, 10]: 0.2 ± 0.2 pg/mL
- PD1n-3 DPA concentration [1, 10]: 2.5 ± 1.5 pg/mL
- RvD1n-3 DPA concentration [1, 10]: 1.7 ± 1.5 pg/mL
- RvD2n-3 DPA concentration [1, 10]: 1.2 ± 0.8 pg/mL
- RvD5n-3 DPA concentration [1, 10]: 1.7 ± 0.3 pg/mL
- RvT1 concentration [1, 10]: 0.6 ± 0.2 pg/mL
- RvT2 concentration [1, 10]: 0.1 ± 0.0 pg/mL
- RvT3 concentration [1, 10]: 2.2 ± 1.5 pg/mL
- RvT4 concentration [1, 10]: 3.0 ± 1.8 pg/mL

Compound: CC/C=C\CC(O)C(O)/C=C/C=C/C=C\C=C\C(O)CCCCCC(=O)O (stereo not drawn) [RvD2n-3 DPA, 7,16,17-trihydroxy-8,10,12,14E,19Z-docosapentaenoic acid]
- monocyte expression of CD11b [2, 11]: dose dependent decreases
- monocyte expression of platelet marker CD62P [2, 11]: dose dependent decreases
- neutrophil CD11b expression [2, 11]: dose dependent decreases
- neutrophil-platelet aggregates measured as neutrophil CD62P expression [2, 11]: dose dependent decreases
- decrease in monocyte CD41 expression ([2]; at 10 nM, n=5 donors): ~29%
- decrease in neutrophil CD41 expression ([2]; at 10 nM, n=5 donors): ~20%
- monocyte CD11b expression [3, 12]: without significantly regulating
- neutrophil CD11b expression [3, 12]: without significantly regulating
- platelet-monocyte aggregates [3, 12]: dose-dependently decreased
- platelet-neutrophil aggregates [3, 12]: dose-dependently decreased
- platelet CD62P expression ([3]; CVD patient whole blood): downregulated
- platelet CD63 expression ([3]; CVD patient whole blood): downregulated
- expression of CD11b on monocytes [4]: only in part shared
- expression of CD11b on neutrophils [4]: only in part shared
- platelet-monocyte aggregates measured as CD62P and CD41 expression [4]: decreases
- platelet-neutrophil aggregates measured as CD62P and CD41 expression [4]: decreases
- expression of CD62P on peripheral blood platelets [5]: dose-dependently regulated
- expression of CD63 on peripheral blood platelets [5]: dose-dependently regulated

Compound: NC[C@H](O)c1ccc(O)c(O)c1 [norepinephrine]
- production of n-3 DPA derived mediators in peripheral blood [1]: did not significantly augment

Compound: adenosine deaminase [ADA]
- concentrations of RvDn-3 DPA in CVD patient blood [6]: increase
